Measured values reported in ChEMBL document CHEMBL1201862, “PubChem BioAssay data set” (2004).
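Tested at 5 concentrations; 48 h exposure; 96-well plates; endpoints linearly interpolated, else capped at highest concentration. At the GI50, growth is halved.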 Activity calls are given as the source filed them. No stated cut-off is given here; in the data, active = GI50 up to about 1.1 µM and inactive = higher.

How the values were obtained:
Assay in all cases: DTP human tumour cell line panel, 48 h
[1] = system: M14
[2] = system: SF-268
[3] = system: MCF7
[4] = system: OVCAR-8
[5] = system: CAKI-1
[6] = system: SK-MEL-2
[7] = system: DU-145
[8] = system: SW-620
[9] = system: MDA-N
[10] = system: HT-29
[11] = system: HOP-92
[12] = system: HL-60
[13] = system: LOX IMVI
[14] = system: NCI-H460
[15] = system: TK-10
[16] = system: BT-549
[17] = system: SNB-75
[18] = system: OVCAR-5
[19] = system: SF-295

Row | Compound | GI50 [1] | GI50 [2] | GI50 [3] | GI50 [4] | GI50 [5] | GI50 [6] | GI50 [7] | GI50 [8] | GI50 [9] | GI50 [10] | GI50 [11] | GI50 [12] | GI50 [13] | GI50 [14] | GI50 [15] | GI50 [16] | GI50 [17] | GI50 [18] | GI50 [19]
1 | Cc1c(NC(=O)c2cc([N+](=O)[O-])cc([N+](=O)[O-])c2)c(=O)n(-c2ccccc2)n1C | > 100 µM (inactive) | > 100 µM (inactive) | 61.7 µM (inactive) | > 100 µM (inactive) | > 100 µM (inactive) | > 100 µM (inactive) | > 100 µM (inactive) | > 100 µM (inactive) | > 100 µM (inactive) | 33.2 µM (inactive) | 76.9 µM (inactive) | > 100 µM (inactive) | > 100 µM (inactive) | 97.7 µM (inactive) | > 100 µM (inactive) | > 100 µM (inactive) |  |  | 
2 | COc1ccc(NCc2cnc3nc(N)nc(N)c3c2C)cc1 | 1.69 µM (inactive) | 0.618 µM (active) | 2.13 µM (inactive) | 0.167 µM (active) | 6.55 µM (inactive) | > 100 µM (inactive) | 0.718 µM (active) | 0.914 µM (active) | 0.174 µM (active) | 0.406 µM (active) | 5.93 µM (inactive) |  | 0.316 µM (active) | 0.433 µM (active) | 41.4 µM (inactive) | > 100 µM (inactive) | 52 µM (inactive) | 3.87 µM (inactive) | 0.41 µM (active)
3 | Cc1cc(C)c2c(O)cc(-c3ccc(Cl)cc3)nc2n1 | 25.7 µM (inactive) | > 100 µM (inactive) | 27.2 µM (inactive) | > 100 µM (inactive) | 37.4 µM (inactive) | 47 µM (inactive) | 54.1 µM (inactive) | 26.6 µM (inactive) | 7.11 µM (inactive) | 19.9 µM (inactive) | 9.27 µM (inactive) | 23.1 µM (inactive) | 35.5 µM (inactive) | 25.8 µM (inactive) | > 100 µM (inactive) | 23.6 µM (inactive) | 33.2 µM (inactive) | > 100 µM (inactive) | 28.2 µM (inactive)
4 | COc1cc2c(cc1OCCCN1CCOCC1)N=C[C@@H]1CCCN1C2=O | 11 µM (inactive) | 7.53 µM (inactive) | 7.24 µM (inactive) | 24.7 µM (inactive) | 5.82 µM (inactive) | 11.2 µM (inactive) | 21.7 µM (inactive) | 3.33 µM (inactive) | 6.89 µM (inactive) | 8.79 µM (inactive) | 2.37 µM (inactive) | 5.74 µM (inactive) | 4.48 µM (inactive) | 24.5 µM (inactive) | 19.8 µM (inactive) | 6.53 µM (inactive) |  | 15.5 µM (inactive) | 9.59 µM (inactive)
5 | COc1cc2c(cc1OC)-c1[nH]c3ccc(C#N)cc3c1CC(=O)N2 | 8.09 µM (inactive) | 1.72 µM (inactive) | 4.71 µM (inactive) | 4.2 µM (inactive) | 1.56 µM (inactive) |  | 3.33 µM (inactive) | 1.03 µM (active) | 2.48 µM (inactive) | 3.88 µM (inactive) | > 100 µM (inactive) | 3.07 µM (inactive) | 2.09 µM (inactive) | 5.31 µM (inactive) | > 27 µM (inactive) | 10.5 µM (inactive) | 0.44 µM (active) | 3.69 µM (inactive) | 6.14 µM (inactive)
6 | COc1cc(O)c(C(=O)/C=C/c2ccccc2)c(OC)c1 [FLAVOKAWAIN B] | 7.94 µM (inactive) | 4.98 µM (inactive) | 7.8 µM (inactive) | 3.64 µM (inactive) | 5.28 µM (inactive) | 4.62 µM (inactive) | 7.73 µM (inactive) | 3.85 µM (inactive) | 3.78 µM (inactive) | 7.66 µM (inactive) | 3.72 µM (inactive) | 1.21 µM (inactive) | 2.29 µM (inactive) | 3.54 µM (inactive) | 6.55 µM (inactive) | 4.47 µM (inactive) |  | 23.9 µM (inactive) | 13 µM (inactive)
7 | O=C1NC(=O)/C(=C\c2ccncc2)N1 | > 100 µM (inactive) |  | > 100 µM (inactive) | > 100 µM (inactive) | > 100 µM (inactive) | > 100 µM (inactive) | > 100 µM (inactive) | > 100 µM (inactive) | > 100 µM (inactive) | > 100 µM (inactive) | > 100 µM (inactive) | > 10 µM (inactive) | > 100 µM (inactive) | > 100 µM (inactive) | > 100 µM (inactive) | > 100 µM (inactive) | > 100 µM (inactive) | > 100 µM (inactive) | > 100 µM (inactive)
8 | CC(C)=C[C@@H]1O[C@H](O)[C@@H]([C@H]2CC[C@@]3(C)[C@@H]4CC[C@H]5C(C)(C)C(=O)CC[C@@]56C[C@@]46CC[C@]23C)[C@@H]1O | 21 µM (inactive) | 17.6 µM (inactive) | 4.14 µM (inactive) | 15.4 µM (inactive) | 17.3 µM (inactive) | 20 µM (inactive) | 16.1 µM (inactive) | 13.1 µM (inactive) | 15.9 µM (inactive) | 11.8 µM (inactive) | 16.6 µM (inactive) | 14.2 µM (inactive) |  | 19.5 µM (inactive) | 16 µM (inactive) | 20.1 µM (inactive) | 17.7 µM (inactive) | 23.1 µM (inactive) | 16.1 µM (inactive)
9 | CSc1s[s+]c(SC)c1-c1ccccc1 | 16.5 µM (inactive) | 18.2 µM (inactive) | 17 µM (inactive) | 15.7 µM (inactive) | 17.1 µM (inactive) |  | 70.1 µM (inactive) | 16.4 µM (inactive) | 16.7 µM (inactive) | 17.5 µM (inactive) | 13.2 µM (inactive) | 28.9 µM (inactive) | 25.9 µM (inactive) | 29.7 µM (inactive) | 15.5 µM (inactive) | 13.9 µM (inactive) |  | 15.8 µM (inactive) | 17.6 µM (inactive)
10 | CNc1ccc([S+]([O-])Nc2ccc(OC)cc2)cc1 (stereo unspecified) | > 100 µM (inactive) | > 100 µM (inactive) | 79.6 µM (inactive) | 86.3 µM (inactive) | 65.5 µM (inactive) |  | 39.5 µM (inactive) | 31.6 µM (inactive) | > 100 µM (inactive) | 33.7 µM (inactive) | > 100 µM (inactive) | 54.6 µM (inactive) | 7.38 µM (inactive) | 32 µM (inactive) | > 100 µM (inactive) | 2.06 µM (inactive) |  |  | > 100 µM (inactive)
11 | O=C(O)c1ccc(C=C2Sc3ccccc3S2)cc1 | 44.8 µM (inactive) | 52.6 µM (inactive) | 35 µM (inactive) | > 100 µM (inactive) | 45.3 µM (inactive) | 29.4 µM (inactive) | > 100 µM (inactive) | > 100 µM (inactive) | 29 µM (inactive) | 43.5 µM (inactive) | 64.4 µM (inactive) | 35 µM (inactive) | 52 µM (inactive) | 50 µM (inactive) | 75.9 µM (inactive) | 62.7 µM (inactive) |  | 66.1 µM (inactive) | 33.5 µM (inactive)
12 | C=C(C)C(CC=C(C)C)CC12CC(CC=C(C)C)C(C)(C)C(CC=C(C)C)(C(=O)C(Cc3ccc(O)c(O)c3)=C1O)C2=O (stereo unspecified) | > 100 µM (inactive) | > 100 µM (inactive) | > 100 µM (inactive) | > 100 µM (inactive) | > 100 µM (inactive) |  | > 100 µM (inactive) | > 100 µM (inactive) | > 100 µM (inactive) | > 100 µM (inactive) | > 100 µM (inactive) | > 100 µM (inactive) | > 100 µM (inactive) | > 100 µM (inactive) | > 100 µM (inactive) | > 100 µM (inactive) | > 100 µM (inactive) | > 100 µM (inactive) | > 100 µM (inactive)
13 | Nc1cnc2c(c1)c(=O)nc1n2CCS1 |  | > 100 µM (inactive) | > 100 µM (inactive) | > 100 µM (inactive) | 72.4 µM (inactive) | > 100 µM (inactive) | > 100 µM (inactive) | > 100 µM (inactive) | > 100 µM (inactive) | > 100 µM (inactive) | > 100 µM (inactive) | > 100 µM (inactive) | > 100 µM (inactive) | > 100 µM (inactive) | > 100 µM (inactive) | > 100 µM (inactive) | 86.9 µM (inactive) | > 100 µM (inactive) | > 100 µM (inactive)
14 | CC(=O)c1ccc(/N=N/N2CCCC2)cc1 | > 100 µM (inactive) | > 100 µM (inactive) | > 100 µM (inactive) | > 100 µM (inactive) | > 100 µM (inactive) | > 100 µM (inactive) | > 100 µM (inactive) | > 100 µM (inactive) | > 100 µM (inactive) |  | > 100 µM (inactive) | 29.5 µM (inactive) | > 100 µM (inactive) | > 100 µM (inactive) | > 100 µM (inactive) | > 100 µM (inactive) | > 100 µM (inactive) | > 100 µM (inactive) | > 100 µM (inactive)
15 | CN(/N=C/c1ccnc2ccccc12)c1ccc(Cl)cc1[N+](=O)[O-] | > 100 µM (inactive) | 80 µM (inactive) | 83.9 µM (inactive) | 85.5 µM (inactive) | > 100 µM (inactive) | > 100 µM (inactive) | > 100 µM (inactive) | > 100 µM (inactive) | > 100 µM (inactive) | 98.2 µM (inactive) | 25.8 µM (inactive) | > 100 µM (inactive) |  | > 100 µM (inactive) | 35.6 µM (inactive) | 6.95 µM (inactive) | 26.6 µM (inactive) | > 100 µM (inactive) | 15.1 µM (inactive)
